Key:
α3L158CA179Cβ2 nAChR [1] = target: T1, α3L158CA179Cβ2 nAChR (Rattus norvegicus, UniProt P04757+P12390, A206C/L185C); assay: Two-electrode voltage-clamp concentration-response in Xenopus oocytes; assay type: cell-based; details: naïve oocytes
α3A179Cβ2 nAChR = α3A179Cβ2 nAChR (Rattus norvegicus, UniProt P04757+P12390, A179C/A206C); assay: as above; assay type: cell-based
α3L158CG181Cβ2 nAChR [2] = target: T2, α3L158CG181Cβ2 nAChR (Rattus norvegicus, UniProt P04757+P12390, G208C/L185C); assay: as above; assay type: cell-based
wild type α3β2 nAChR = wild type α3β2 nAChR (Rattus norvegicus, UniProt P04757+P12390); details: ref Cesa et al., 2012, cited from earlier work
α3G181Cβ2 nAChR [3] = target: T3, α3G181Cβ2 nAChR (Rattus norvegicus, UniProt P04757+P12390, G208C); assay: Two-electrode voltage-clamp concentration-response in Xenopus oocytes; assay type: cell-based
α3L158CK183Cβ2 nAChR [4] = target: T4, α3L158CK183Cβ2 nAChR (Rattus norvegicus, UniProt P04757+P12390, K210C/L185C); assay: as above; assay type: cell-based
α3K183Cβ2 nAChR = α3K183Cβ2 nAChR (Rattus norvegicus, UniProt P04757+P12390, K210C); assay: as above; assay type: cell-based
α3L158Cβ2 nAChR [5] = target: T5, α3L158Cβ2 nAChR (Rattus norvegicus, UniProt P04757+P12390, L185C); assay: as above; assay type: cell-based
α3L158CA179Cβ2 nAChR [6] = target: T1, α3L158CA179Cβ2 nAChR; assay: Oxidation/reduction treatment; assay type: cell-based; details: for IDTT/Icontrol: 40 μM DTT; for ITCEP/Icontrol: 40 μM TCEP
α3L158CK183Cβ2 nAChR [7] = target: T4, α3L158CK183Cβ2 nAChR; assay: Oxidation/reduction treatment; assay type: cell-based; details: for IDTT/Icontrol: DTT treatment; for decrease of ACh-evoked currents: 125 μM ACh challenge
α3L158CG181Cβ2 nAChR [8] = target: T2, α3L158CG181Cβ2 nAChR; assay: Oxidation/reduction treatment; assay type: cell-based; details: for ACh/Mor-evoked current, % of the control: after H2O2 + ACh + Mor oxidation
α3L158Cβ2 nAChR [9] = target: T5, α3L158Cβ2 nAChR; assay: Oxidation/reduction treatment, evoked currents; assay type: cell-based; details: ACh + Mor currents
α3G181Cβ2 nAChR [10] = target: T3, α3G181Cβ2 nAChR; assay: Oxidation/reduction treatment, evoked currents; assay type: cell-based; details: ACh + Mor currents
α3G181Cβ2 nAChR [11] = target: T3, α3G181Cβ2 nAChR; assay: MTS-dansyl treatment, evoked currents; assay type: cell-based; details: 100 μM ACh currents
α3L158Cβ2 nAChR [12] = target: T5, α3L158Cβ2 nAChR; assay: MTS-dansyl treatment, evoked currents; assay type: cell-based; details: 5 μM ACh currents
α3L158CG181Cβ2 nAChR [13] = target: T2, α3L158CG181Cβ2 nAChR; assay: MTS-dansyl probing of free sulfhydryls, evoked currents; assay type: cell-based
[14] = ACh alone, Hill fit, naïve oocytes
[15] = DTT after treatment with H2O2 only
[16] = ACh + 10 μM Mor, asymptote at saturating ACh, normalized to highest ACh alone
[17] = ACh titration + 10 μM Mor, naïve oocytes
[18] = Mor alone, relative to internal ACh control

T1 sequence (P04757 26-499 L185C/A206C): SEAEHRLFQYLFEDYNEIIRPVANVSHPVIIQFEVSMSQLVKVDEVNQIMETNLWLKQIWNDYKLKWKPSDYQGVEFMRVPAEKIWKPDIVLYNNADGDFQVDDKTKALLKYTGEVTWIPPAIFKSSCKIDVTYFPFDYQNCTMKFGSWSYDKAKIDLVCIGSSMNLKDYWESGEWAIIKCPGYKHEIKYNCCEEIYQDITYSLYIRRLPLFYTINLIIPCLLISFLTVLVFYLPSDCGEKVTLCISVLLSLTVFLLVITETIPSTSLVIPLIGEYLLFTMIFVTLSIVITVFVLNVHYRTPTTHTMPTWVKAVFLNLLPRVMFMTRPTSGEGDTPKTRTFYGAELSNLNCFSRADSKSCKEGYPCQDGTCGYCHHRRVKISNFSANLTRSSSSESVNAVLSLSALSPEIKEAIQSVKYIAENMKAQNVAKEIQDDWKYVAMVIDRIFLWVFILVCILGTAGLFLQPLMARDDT
T1 sequence (P12390 25-500, stated change not applied): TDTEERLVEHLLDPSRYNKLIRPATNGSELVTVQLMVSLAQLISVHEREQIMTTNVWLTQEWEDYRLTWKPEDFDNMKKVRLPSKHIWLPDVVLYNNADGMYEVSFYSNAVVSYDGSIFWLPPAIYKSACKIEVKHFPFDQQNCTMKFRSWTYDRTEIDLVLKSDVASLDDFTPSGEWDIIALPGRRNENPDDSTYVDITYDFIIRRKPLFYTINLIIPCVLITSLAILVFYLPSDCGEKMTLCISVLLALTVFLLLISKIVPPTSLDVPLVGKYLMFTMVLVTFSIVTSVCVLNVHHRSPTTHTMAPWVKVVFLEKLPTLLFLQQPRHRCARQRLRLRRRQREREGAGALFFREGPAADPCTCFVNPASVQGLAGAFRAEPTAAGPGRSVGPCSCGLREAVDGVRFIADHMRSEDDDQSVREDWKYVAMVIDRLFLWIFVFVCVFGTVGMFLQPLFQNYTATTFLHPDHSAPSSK
T3 sequence (P04757 26-499 G208C): as the sequence (P04757 26-499 L185C/A206C) above, with C160L, C181A, G183C counted along it
T3 sequence (P12390 25-500): as the sequence (P12390 25-500, stated change not applied) above
Sequence of α3K183Cβ2 nAChR (P04757 26-499 K210C): as the sequence (P04757 26-499 L185C/A206C) above, with C160L, C181A, K185C counted along it
Sequence of α3K183Cβ2 nAChR (P12390 25-500): as the sequence (P12390 25-500, stated change not applied) above
T4 sequence (P04757 26-499 L185C/K210C): as the sequence (P04757 26-499 L185C/A206C) above, with C181A, K185C counted along it
T4 sequence (P12390 25-500): as the sequence (P12390 25-500, stated change not applied) above
T5 sequence (P04757 26-499 L185C): as the sequence (P04757 26-499 L185C/A206C) above, with C181A counted along it
T5 sequence (P12390 25-500): as the sequence (P12390 25-500, stated change not applied) above
Sequence of α3A179Cβ2 nAChR (P04757 26-499 A179C/A206C): as the sequence (P04757 26-499 L185C/A206C) above, with A154C, C160L counted along it
Sequence of α3A179Cβ2 nAChR (P12390 25-500, stated change not applied): as the sequence (P12390 25-500, stated change not applied) above
T2 sequence (P04757 26-499 L185C/G208C): as the sequence (P04757 26-499 L185C/A206C) above, with C181A, G183C counted along it
T2 sequence (P12390 25-500): as the sequence (P12390 25-500, stated change not applied) above
Sequence of wild type α3β2 nAChR (P04757 26-499): as the sequence (P04757 26-499 L185C/A206C) above, with C160L, C181A counted along it
Sequence of wild type α3β2 nAChR (P12390 25-500): as the sequence (P12390 25-500, stated change not applied) above

CC(=O)OCC[N+](C)(C)C [ACh, acetylcholine]
ACh Response nH (α3L158CA179Cβ2 nAChR [1]; ACh alone, Hill fit): 1.19 ± 0.20 [7] | ACh Response nH (α3A179Cβ2 nAChR; ACh alone, Hill fit): 0.79 ± 0.08 [8] | ACh Response nH (α3L158CG181Cβ2 nAChR [2]; [14]): 0.93 ± 0.23 [5] | ACh Response nH (wild type α3β2 nAChR; ACh alone, Hill fit): 0.75 ± 0.07 | ACh Response nH (α3G181Cβ2 nAChR [3]; ACh alone, Hill fit): 1.10 ± 0.11 [5] | ACh Response nH (α3L158CK183Cβ2 nAChR [4]; [14]): 1.11 ± 0.14 [6] | ACh Response nH (α3K183Cβ2 nAChR; ACh alone, Hill fit): 2.43 ± 0.78 [9] | ACh Response nH (α3L158Cβ2 nAChR [5]; ACh alone, Hill fit): 0.80 ± 0.11 [6] ^b

O[C@@H](CS)[C@@H](O)CS [DTT]
IDTT/Icontrol (α3L158CA179Cβ2 nAChR [6]; 24 μM ACh): 1.30 ± 0.08 | IDTT/Icontrol (α3L158CA179Cβ2 nAChR [6]; 24 μM ACh + 10 μM Mor): 1.26 ± 0.07 | IDTT/Icontrol (ACh + Mor) (α3L158CA179Cβ2 nAChR [6]; [15]): 1.06 ± 0.06 | IDTT/Icontrol (ACh) (α3L158CA179Cβ2 nAChR [6]; [15]): 0.99 ± 0.04 | IDTT/Icontrol (ACh + Mor) (α3L158CK183Cβ2 nAChR [7]; DTT post-oxidation): 1.02 ± 0.02 | IDTT/Icontrol (ACh) (α3L158CK183Cβ2 nAChR [7]; DTT post-oxidation): 0.97 ± 0.03 | IDTT/Icontrol (α3L158CK183Cβ2 nAChR [7]; 125 μM ACh): 1.10 ± 0.01 | IDTT/Icontrol (α3L158CK183Cβ2 nAChR [7]; 125 μM ACh + 10 μM Mor): 1.19 ± 0.03 | increase of ACh-evoked current (α3L158CG181Cβ2 nAChR [8]; 40 μM DTT 5 min on naive oocytes, prior to H2O2, challenge 100 μM ACh): 25% | IDTT/IH2O2 (α3L158Cβ2 nAChR [9]): 0.96 ± 0.17 | IDTT/IH2O2 (α3G181Cβ2 nAChR [10]): 0.96 ± 0.06

OO [H2O2]
decrease of evoked currents (α3L158CA179Cβ2 nAChR [6]; two oxidation conditions (H2O2 alone; H2O2 + ACh + Mor), two challenges (24 μM ACh; 24 μM ACh + 10 μM Mor)): 25–28% | decrease of ACh-evoked currents (α3L158CK183Cβ2 nAChR [7]; H2O2 + ACh + Mor treatment): 28% | decrease of ACh-evoked currents (α3L158CK183Cβ2 nAChR [7]; H2O2 alone treatment): 13% | decrease of ACh-evoked current (α3L158CG181Cβ2 nAChR [8]; 4.4 mM H2O2 + 100 μM ACh + 10 μM Mor, 5 min, challenge 100 μM ACh): 26% | decrease of ACh + Mor-evoked current (α3L158CG181Cβ2 nAChR [8]; 4.4 mM H2O2 + 100 μM ACh + 10 μM Mor, 5 min, challenge 100 μM ACh + 10 μM Mor): 26% | effect on ACh-evoked currents (α3L158CG181Cβ2 nAChR [8]; 4.4 mM H2O2 alone, 5 min, challenge 100 μM ACh): no apparent effect | decrease of currents evoked by ACh and Mor (α3L158CG181Cβ2 nAChR [8]; 4.4 mM H2O2 alone, 5 min, challenge 100 μM ACh + 10 μM Mor): 24% | decrease of ACh-evoked current relative to post-reduction value (α3L158CG181Cβ2 nAChR [8]; H2O2 + ACh + Mor oxidation after DTT, challenge 100 μM ACh): 52% | decrease of ACh/Mor-evoked current relative to post-reduction value (α3L158CG181Cβ2 nAChR [8]; H2O2 + ACh + Mor oxidation after DTT, challenge 100 μM ACh + 10 μM Mor): 46% | Ipost-oxidation/Icontrol (α3L158CG181Cβ2 nAChR [8]; H2O2 + ACh + Mor treatment, 5 μM ACh currents (MTS probing experiments)): 0.66 ± 0.05 | ACh/Mor-evoked current, % of the control (α3L158CG181Cβ2 nAChR [8]; challenges every 100 sec, first response): about 60% | ACh/Mor-evoked current, % of the control (α3L158CG181Cβ2 nAChR [8]; five successive challenges in 500 sec): ≤ 80% | IH2O2/Icontrol (α3L158Cβ2 nAChR [9]): 0.78 ± 0.08 | IH2O2/Icontrol (α3G181Cβ2 nAChR [10]): 0.94 ± 0.03

CN(C)c1cccc2c(S(=O)(=O)NCCSS(C)(=O)=O)cccc12 [MTS-dansyl, dansylamidoethyl methanesthiosulfonate]
decrease of ACh currents after MTS-dansyl (α3G181Cβ2 nAChR [11]): 21 ± 4% | decrease of ACh currents after MTS-dansyl (α3L158Cβ2 nAChR [12]): 44 ± 2% | decrease of ACh/Mor-evoked currents by MTS (α3L158CG181Cβ2 nAChR [13]; after H2O2 + ACh + Mor oxidation, 5 μM ACh + 10 μM Mor): 8% | decrease of ACh current after MTS (α3L158CG181Cβ2 nAChR [13]; after H2O2 alone treatment, 5 μM ACh): 27% | decrease of ACh + Mor current after MTS (α3L158CG181Cβ2 nAChR [13]; after H2O2 alone treatment, 5 μM ACh + 10 μM Mor): 21% | decrease of ACh/Mor-evoked currents by MTS (α3L158CG181Cβ2 nAChR [13]; after standard oxidation then 200–300 sec wash, 5 μM ACh + 10 μM Mor): 14% | decrease of ACh-evoked current after MTS-dansyl (α3L158CG181Cβ2 nAChR [13]; naive oocytes, 50 μM MTS-dansyl 2 min, 5 μM ACh): 33% | decrease of ACh/Mor-evoked current after MTS-dansyl (α3L158CG181Cβ2 nAChR [13]; naive oocytes, 50 μM MTS-dansyl 2 min, 5 μM ACh + 10 μM Mor): 14%

Cc1ccsc1C=CC1=NCCCN1C.O=C(O)C(O)C(O)C(=O)O [Mor, 1,4,5,6-tetrahydro-1-methyl-2-(2-[3-methyl-2-thienyl]ethenyl)pyrimidine, tartrate salt]
Mor Modulation Response nH (α3L158CA179Cβ2 nAChR [1]; ACh titration + 10 μM Mor): 1.70 ± 0.50 | Mor Modulation Response Emax (α3A179Cβ2 nAChR; [16]): 1.6 ± 0.1 | Mor Modulation Response nH (α3A179Cβ2 nAChR; ACh titration + 10 μM Mor): 1.79 ± 0.75 | EC50 (α3L158CG181Cβ2 nAChR [2]): 28 ± 10 µM | Mor Modulation Response nH (α3L158CG181Cβ2 nAChR [2]; [17]): 1.18 ± 0.25 | Emax, activation by Mor alone (α3L158CG181Cβ2 nAChR [2]; [18]): 0.074 ± 0.009 | Mor Modulation Response nH (wild type α3β2 nAChR; ACh titration + 10 μM Mor): 1.37 ± 0.80 | EC50 (α3G181Cβ2 nAChR [3]): 41 ± 26 µM | Mor Modulation Response Emax (α3G181Cβ2 nAChR [3]; [16]): 2.3 ± 0.1 | Mor Modulation Response nH (α3G181Cβ2 nAChR [3]; ACh titration + 10 μM Mor): 1.08 ± 0.12 | Emax, activation by Mor alone (α3G181Cβ2 nAChR [3]; [18]): 0.32 ± 0.05 | Mor potentiation (α3L158CK183Cβ2 nAChR [4]; ACh + 10 μM Mor vs ACh alone): effectively no potentiation | Mor Modulation Response nH (α3L158CK183Cβ2 nAChR [4]; [17]): 0.95 ± 0.16 | Mor potentiation (α3K183Cβ2 nAChR; ACh + 10 μM Mor vs ACh alone): negligible Mor potentiation | Mor Modulation Response Emax (α3K183Cβ2 nAChR; [16]): 0.97 ± 0.02 | Mor Modulation Response nH (α3K183Cβ2 nAChR; ACh titration + 10 μM Mor): 1.61 ± 0.22 | EC50 (α3L158Cβ2 nAChR [5]): 12 ± 7 µM | Mor Modulation Response Emax (α3L158Cβ2 nAChR [5]; [16]): 1.6 ± 0.1 | Mor Modulation Response nH (α3L158Cβ2 nAChR [5]; ACh titration + 10 μM Mor): 1.47 ± 0.39 | Emax, activation by Mor alone (α3L158Cβ2 nAChR [5]; [18]): 0.021 ± 0.002

O=C(O)CCP(CCC(=O)O)CCC(=O)O [TCEP, tris(2-carboxyethyl)phosphine]
ITCEP/Icontrol (α3L158CA179Cβ2 nAChR [6]; ACh): 1.21 ± 0.04 | ITCEP/Icontrol (α3L158CA179Cβ2 nAChR [6]; ACh + Mor): 1.24 ± 0.05

From article PMC3970552 (Neuropharmacology, 2013)
